Converted amounts (≈) assume the structure as drawn.
Tests used:
Geotrichum candidum = experiment: Volatile MIC assay (Example 11); assay type: cell-based; conditions: G. candidum
Description: (§1) A 3-mL volume of full-strength Potato Dextrose Agar (PDA) is added to each well. After cooling, 1 μL of 1×10^5 spores per mL of Botrytis cinerea, Penicillium expansum, Alternaria alternata, Glomerella cingulata, Penicillium digitatum, Monilinia fruticola, Aspergillus brasiliensis, Colletotrichum acutatum, Fusarium sambucinum, Phytophthora capsici, Geotrichum candidum, Aspergillus niger, Diplodia gossypina or Diaporthe citrii suspension is spotted onto the center of the agar. A Whatman #1 filter disk (Cat. No. 1001-0155) is placed, in duplicate, on the underside of a polyethylene PCR plate sealing film. […] The headspace around the inoculum is then sealed inside the well by the film with the adhering disk containing the fungicide by inverting the plates over the treated disks and sealing to prevent any of the chemical from flaking from the disk and falling onto the inoculated agar. After 3 days of storage at 23° C., cultures are evaluated for percent growth relative to control.

Fusarium sambucinum = experiment: Volatile MIC assay (Example 11); assay type: cell-based; conditions: F. sambucinum
Description: as §1

Monilinia fruticola = experiment: Volatile MIC assay (Example 11); assay type: cell-based; conditions: M. fruticola
Description: as §1

Botrytis cinerea [1] = experiment: Volatile MIC assay (Example 11); assay type: cell-based; conditions: B. cinerea
Description: as §1

Alternaria alternata = experiment: Volatile MIC assay (Example 11); assay type: cell-based; conditions: A. alternata
Description: as §1

Penicillium digitatum = experiment: Volatile MIC assay (Example 11); assay type: cell-based; conditions: P. digitatum
Description: as §1

Diaporthe citrii = experiment: Volatile MIC assay (Example 11); assay type: cell-based; conditions: D. citrii
Description: as §1

Phytophthora capsici = experiment: Volatile MIC assay (Example 11); assay type: cell-based; conditions: P. capsici
Description: as §1

Colletotrichum acutatum = experiment: Volatile MIC assay (Example 11); assay type: cell-based; conditions: C. acutatum
Description: as §1

Diplodia gossypina = experiment: Volatile MIC assay (Example 11); assay type: cell-based; conditions: Lasiodiplodia theobromae, D. gossypina
Description: as §1

Aspergillus brasiliensis = experiment: Volatile MIC assay (Example 11); assay type: cell-based; conditions: A. brasiliensis
Description: as §1

Aspergillus niger = experiment: Volatile MIC assay (Example 11); assay type: cell-based; conditions: A. niger
Description: as §1

Penicillium expansum = experiment: Volatile MIC assay (Example 11); assay type: cell-based; conditions: P. expansum
Description: as §1

Botrytis cinerea [2] = experiment: Volatile application to strawberries in clamshells, treated clamshell vs fruit transfer (Example 21); assay type: in vivo; conditions: 0.1 mg/L headspace
Description: Eight strawberries (per repetition, in triplicate) are placed in an industry standard 1-lb PET clamshell with the stem-end facing down.
Compound A is then mixed with acetone and 100 μL of the mixture is pipetted into a small glass tube. […] Compound A is then introduced into the cabinet containing the clamshell by using the sublimation device set at 180° C. to achieve a final headspace concentration of 0.1 mg/L and equilibrated at 1° C. for 0.5 or 1 hour.
After incubation, both clamshells are removed from the treatment chamber. One clamshell is undisturbed while the fruit from the second clamshell are immediately transferred into a new untreated clamshell. All clamshells are then held at 1° C. for 5 days and then evaluated during an additional 5 days at 21° C. During the 5 days at 21° C., the fruits are evaluated for gray mold severity (scale 0 to 4, with ≤1 indicating marketable fruit and 4 indicating ≥50% of fruit surface covered by pathogen). […] The treated clamshell produces marketable fruit up to 3 days with 0.5 hour treatment (0.1), whereas fruits in new clamshells are unmarketable (2.7). Similarly, the treated clamshell produces marketable fruit up to 5 days with 1 hour treatment (0.4), whereas fruits in new clamshells are unmarketable (1.6). Thus, treatments where berries remain in the treated clamshells have the best level of control due to the compound further volatilizing over time off of the clamshell surface.

Botrytis cinerea [3] = experiment: Dose response, vapor-coated clamshells; strawberries (Example 3); assay type: in vivo; conditions: Inoculated Fruit, sublimation
Description: Five milligrams of Compound A was dissolved in 1 ml of ethanol prior to being uniformly administered to the interior of the clamshell by painting or spraying, and then dried for 5 minutes. After coating the clamshells with Compound A using various application techniques (i.e., sublimation, spraying, or painting), eight ethanol-washed strawberries were placed in the clamshell with stem end facing downwards. Each strawberry fruit was wounded using a T15 screwdriver tip to a uniform depth of eight mm (8 mm). […] Uninoculated strawberries were removed from their commercial package, and directly transferred into treated clamshells without any washing or inoculation steps.
Treated clamshells lids were closed, and then placed at 1° C. for an initial time period of 5 days. Clamshells were then removed from low temperature, and held for a second time period of 6 days at room temperature where the point of inoculation on the strawberry fruits was assessed for indication of disease incidence reported as a percentage (%). Severity of disease incidence was also reported.
This in vivo assay was used to evaluate the ability of vaporized Compound A to volatilize from a clamshell in order to control or inhibit pathogenic microorganisms. This experiment was conducted exactly as described in Example 1, with a few exceptions. After equilibrating the clamshell overnight at 21° C., Compound A was administered to the clamshell as a vapor only. In addition, Compound A was vapor-coated onto the surface of the clamshell at a final treatment rate of 3.16 mg/clamshell, 1 mg/clamshell, or 0.316 mg/clamshell. After vapor-coating application, Compound A headspace was permitted to equilibrate overnight at 21° C. Strawberries were inoculated with Botrytis cinerea, placed within the clamshells for an initial time period, and assessed for disease incidence and severity over a second time period as described in Example 1.

## OB1OCc2cc(F)ccc21 [Compound A, 5-fluoro-1,3-dihydro-1-hydroxy-2,1-benzoxaborole]
Geotrichum candidum
  MIC: 8.9 mg/L (≈ 58.6 µM)
Fusarium sambucinum
  MIC: 1.1 mg/L (≈ 7.24 µM)
Monilinia fruticola
  MIC: 2.2 mg/L (≈ 14.5 µM)
Botrytis cinerea [1]
  MIC: 2.2 mg/L (≈ 14.5 µM)
Alternaria alternata
  MIC: 2.2 mg/L (≈ 14.5 µM)
Penicillium digitatum
  MIC: 2.2 mg/L (≈ 14.5 µM)
Diaporthe citrii
  MIC: 2.2 mg/L (≈ 14.5 µM)
Phytophthora capsici
  MIC: 1.1 mg/L (≈ 7.24 µM)
Colletotrichum acutatum
  MIC: 4.4 mg/L (≈ 29 µM)
Diplodia gossypina
  MIC: 1.1 mg/L (≈ 7.24 µM)
Aspergillus brasiliensis
  MIC: 2.2 mg/L (≈ 14.5 µM)
Aspergillus niger
  MIC: 2.2 mg/L (≈ 14.5 µM)
Penicillium expansum
  MIC: 1.1 mg/L (≈ 7.24 µM)
Botrytis cinerea [2]; Treated clamshell, treatment time 0.5 hour, Day 1
  Disease Severity (0 to 4): 0.0
Botrytis cinerea [2]; Treated clamshell, treatment time 0.5 hour, Day 3
  Disease Severity (0 to 4): 0.1
Botrytis cinerea [2]; Treated clamshell, treatment time 0.5 hour, Day 5
  Disease Severity (0 to 4): 2.3
Botrytis cinerea [2]; Treated clamshell, treatment time 1 hour, Day 1
  Disease Severity (0 to 4): 0.0
Botrytis cinerea [2]; Treated clamshell, treatment time 1 hour, Day 3
  Disease Severity (0 to 4): 0.0
Botrytis cinerea [2]; Treated clamshell, treatment time 1 hour, Day 5
  Disease Severity (0 to 4): 0.4
Botrytis cinerea [2]; Untreated clamshell (fruit transfer), treatment time 0.5 hour, Day 1
  Disease Severity (0 to 4): 0.0
Botrytis cinerea [2]; Untreated clamshell (fruit transfer), treatment time 0.5 hour, Day 3
  Disease Severity (0 to 4): 2.7
Botrytis cinerea [2]; Untreated clamshell (fruit transfer), treatment time 0.5 hour, Day 5
  Disease Severity (0 to 4): 3.4
Botrytis cinerea [2]; Untreated clamshell (fruit transfer), treatment time 1 hour, Day 1
  Disease Severity (0 to 4): 0.0
Botrytis cinerea [2]; Untreated clamshell (fruit transfer), treatment time 1 hour, Day 3
  Disease Severity (0 to 4): 0.1
Botrytis cinerea [2]; Untreated clamshell (fruit transfer), treatment time 1 hour, Day 5
  Disease Severity (0 to 4): 1.6
Botrytis cinerea [3]; 0.316 mg per clamshell, Day 1
  Gray Mold Severity (0-4): 0.4
Botrytis cinerea [3]; 0.316 mg per clamshell, Day 2
  Gray Mold Severity (0-4): 1.3
Botrytis cinerea [3]; 0.316 mg per clamshell, Day 3
  Gray Mold Severity (0-4): 2.2
Botrytis cinerea [3]; 0.316 mg per clamshell, Day 4
  Gray Mold Severity (0-4): 3.4
Botrytis cinerea [3]; 0.316 mg per clamshell, Day 5
  Gray Mold Severity (0-4): 3.8
Botrytis cinerea [3]; 0.316 mg per clamshell, Day 6
  Gray Mold Severity (0-4): 3.9
Botrytis cinerea [3]; 1.00 mg per clamshell, Day 1
  Gray Mold Severity (0-4): 0.0
Botrytis cinerea [3]; 1.00 mg per clamshell, Day 2
  Gray Mold Severity (0-4): 0.0
Botrytis cinerea [3]; 1.00 mg per clamshell, Day 3
  Gray Mold Severity (0-4): 0.0
Botrytis cinerea [3]; 1.00 mg per clamshell, Day 4
  Gray Mold Severity (0-4): 0.1
Botrytis cinerea [3]; 1.00 mg per clamshell, Day 5
  Gray Mold Severity (0-4): 0.4
Botrytis cinerea [3]; 1.00 mg per clamshell, Day 6
  Gray Mold Severity (0-4): 0.7
Botrytis cinerea [3]; 3.16 mg per clamshell, Day 1
  Gray Mold Severity (0-4): 0.0
Botrytis cinerea [3]; 3.16 mg per clamshell, Day 2
  Gray Mold Severity (0-4): 0.0
Botrytis cinerea [3]; 3.16 mg per clamshell, Day 3
  Gray Mold Severity (0-4): 0.0
Botrytis cinerea [3]; 3.16 mg per clamshell, Day 4
  Gray Mold Severity (0-4): 0.0
Botrytis cinerea [3]; 3.16 mg per clamshell, Day 5
  Gray Mold Severity (0-4): 0.1
Botrytis cinerea [3]; 3.16 mg per clamshell, Day 6
  Gray Mold Severity (0-4): 0.2
